How the values were obtained:
[1] = Solubility study of Apremilast in surfactants and their combinations; assay type: physicochemical
Protocol: The solubility of Apremilast was evaluated in various surfactants and their combinations:
About 50 mg of Apremilast (0.05% w/w) was weighed and dissolved in surfactant and or combination of surfactants at different ratios by heating at a temperature below 85° C. After complete solubilization of the Apremilast in the solubilizer matrix, purified water (q.s to 100%) was added, vortexed for 2 minutes and kept aside.

[2] = cited from earlier work
[3] = dissolved by heating below 85° C., water q.s., observed 24 hrs to 1 week

CCOc1cc([C@@H](CS(C)(=O)=O)N2C(=O)c3cccc(NC(C)=O)c3C2=O)ccc1OC [Apremilast, N-[2-[(1S)-1-(3-ethoxy-4-methoxyphenyl)-2-(methylsulfonyl)ethyl]-1,3-dioxo-2,3-dihydro-1H-isoindol-4-yl]acetamide]
Solubility in combination of surfactants (Tween 80 and Kolliphore E L) with PEG400 [1]: good solubility | Stabilization of API ([1]; PEG400 in combination with Tween 80/Kolliphore E L): stabilized | Surfactant concentration sufficient to stabilise Apremilast ([1]; Tween 80 / kolliphor E. L, 0.001-0.9% w/w of Apremilast): 4 % w/w | Precipitation of Apremilast ([1]; below 2-8% Tween80 / kolliphor E. L concentration): precipitated out | Appearance of solution / prevention of precipitation ([1]; combination of Tween 80 and kolliphor E. L): clear solution | Solubility in Tween 80 [1, 3]: good solubility | Solubility in kolliphor E. L [1, 3]: good solubility | Precipitation of Apremilast ([1]; with 2-8% Tween80 and 2-8% kolliphor E. L): not observed | Precipitation of Apremilast ([1]; with 5% PEG 400 alone): precipitation was observed | Solubility in polar solvents ([2]; polar solvents): minimal solubility | Solubility in water ([2]; water): insolubility
